Assay results reported in patent publication US20060009475A1, “Quinazolinone compounds in combined modalities for improved cancer treatment” (priority 2001, published 2006).
Where “and” joins values, the source holds several entries; their conditions need not be identical. Identical values can stand only once.

Legend:
[1] = tested on: human T98G glioblastoma xenograft (sc tumor); format: in vivo, mice; settings: BCNU 15 mg/kg ip, days 7, 9, 11, alone
Excerpt: Each group contained 5 mice.

[2] = tested on: human T98G glioblastoma (ic tumor); test: Human T98G glioblastoma implanted intracranially, survival (increase-in-lifespan); settings: BCNU 15 mg/kg ip, days 7, 9, 11, alone
Procedure: Halofuginone was tested in the human T98G glioblastoma xenograft implanted subcutaneously or intracranially. Mice were implanted with the human T98G glioblastoma tumor cells subcutaneously in a thigh or intracranially.
Halofuginone was administered orally by gavage at dose levels of 0.1,0.2, and 0.5 mg/kg/day, once per day, on days 4 through 34 days post tumor implantation. Each group contained 5 mice.
The endpoint for the subcutaneous tumor was tumor growth delay while the endpoint for the intracranial tumor was increase-in-lifespan (survival).

[3] = tested on: rabbit aortic smooth muscle cells (SMC); test: [3H]-thymidine incorporation / cell cycle arrest in serum-stimulated smooth muscle cells; format: cell-based
Procedure: Experiments were conducted to determine the specific phase of the cell cycle in which SMC treated with halofuginone were arrested.
As determined by [^3H]-thymidine incorporation, addition of 10% FBS to growth-arrested, quiescent SMC promotes entry of the cells to S phase after a G1 period of 16 hours. Maximal DNA synthesis was seen 20 hours after serum-stimulation (FIG. 1).
It was next determined whether halofuginone arrested proliferation at a specific stage in the cell cycle. For these experiments, quiescent SMCs were kept in 10% FBS plus 10^−7 M halofuginone for 24 hours. The cultures were then washed and placed in 10% FBS with [^3H]-thymidine and without halofuginone. At various times after halofuginone removal, the cells were harvested and thymidine incorporation was determined. When halofuginone-treated cells were released from growth-arrest, there was a lag of 4-6 hours before initiation of DNA synthesis, which peaked by 10 hours (FIG. 1).

[4] = tested on: rat mesangial cells (RMC); test: Cell cycle analysis of mesangial cells by propidium iodide FACScan; format: cell-based; settings: 150 ng/ml halofuginone, 24 hours, 10% FCS
Procedure: Further experiments were conducted to determine whether halofuginone arrests mesangial cell proliferation at a specific phase of the cell cycle.
For this purpose sub confluent RMC's were kept in 10% FCS in the absence or presence of 150 ng/ml halofuginone for 24 hours. The cells were then harvested, stained with propidium iodide and analyzed by FACScan. The percentage of cells progressing into G2/M phase was reduced by halofuginone from 20% to 7%. The percentage of cells in G0/G1 was increased from 38% in the absence of halofuginone to 65% in the presence of halofuginone.

U266 cells = test: Cell cycle analysis of multiple myeloma cells by flow cytometry; format: cell-based; settings: 48 hours, different concentrations
Procedure: Multiple Myeloma (MM) cell line U266B1 was purchased from ATCC (TIB-196).
Cells (10^6) were incubated for 48 hours with different concentrations of halofuginone. The cells were permeabilized with 70% ethanol in PBS for 30 minutes at 4° C., and then incubated with 0.5 ml of a 50 μg/ml Propidium Iodide solution containing 20 U/ml RnaseA for 30 minutes. Cells were analyzed by flow cytometry.

[5] = tested on: radiation-induced fibrosis (leg contraction); test: Leg contraction model of radiation-induced fibrosis; format: in vivo, mice
Procedure: Mice were injected intraperitoneally once daily with 1-5 μg/mouse of halofuginone, for a period of 4 months.
The right leg only of each animal was radiated with 35Gy or 45Gy. […] Measurements were taken within time periods of 2 to 4 months after radiation.

[6] = tested on: pancreatic cancer cell lines 3602 Xrt and 3602 Zyrd/Xrt; test: Radiation survival of pancreatic cancer cell lines pre-treated with halofuginone; format: cell-based, human; settings: 250 nM halofuginone for 24 hr, then radiated with 0-8 Gy
Procedure: Two pancreatic cancer cell lines: 3602 Xrt and 3602 Zyrd/Xrt were incubated with or without 250 nM halofuginone for 24 hr, than radiated with 0-8 Gy. Survival fraction of the cell was determined.

[7] = cited from earlier work
[8] = 24 hours 10^-7 M halofuginone + 10% FBS, then washed

In the case of O=NN(CCCl)C(=O)NCCCl [BCNU, 1,3-bis(2-chloroethyl)-1-nitrosourea], the “TUMOR GROWTH DELAY Days (sc tumor)” value [1] was 3.8 days and 3.9 ± 0.4 days and the “SURVIVAL Days (ic tumor)” value [2] was 97 ± 21 days.
For O=C(CC1NCCC[C@H]1O)Cn1cnc2cc(Br)c(Cl)cc2c1=O (stereo in doubt) [halofuginone, 7-bromo-6-chloro-3-[3-(3-hydroxy-2-piperidinyl)-2-oxopropyl]-4(3H)-quinazolinone], the “[3H]-thymidine incorporation” value ([3]; 10^-7 M halofuginone added with 10% FBS to quiescent SMC) was “only low levels”, the “lag before initiation of DNA synthesis after release from growth-arrest” value [3, 8] was 4 to 6 h and the “time of peak DNA synthesis after halofuginone removal” value [3, 8] was 10 h. For the same molecule, the “cell cycle phase of arrest” value ([3]; continual presence of halofuginone) was “reversibly arrest at late G1 phase”, the “percentage of cells in G0/G1” value [4] was 65% and the “percentage of cells progressing into G2/M phase” value [4] was 7%. For the same molecule, the “number of cells arrested in G1 phase” value (U266 cells) was “elevation”, the “leg length difference between the right and left leg” value ([5]; 1-5 μg/mouse ip once daily, 35Gy or 45Gy, 2 and 4 months post radiation) was “dramatic decrease” and the “condition of irradiated leg (stiffness, skin)” value ([5]; versus mice that did not receive halofuginone) was “definitely less stiff, and the skin was less dry”. For the same molecule, the “decrease in the survival fraction” value [6] was “approximately 50%”.
For Bleomycin, the “death of patients associated with pulmonary fibrosis” value [7] is given as 1% to 2 and the “treated patients with induced pulmonary fibrosis” value [7] is given as 10% to 30.
